Test system: whole blood
Assay: ROTEM blood coagulation analysis, blood collection tube with rubber stopper, Example 3
Assay type: cell-based, human
Conditions: heparan sulfate 1 μg/mL with calcium chloride, CTI 20 μg/mL, PKSI-527 40 μM (reagent (2))
Protocol: The present invention will be more specifically described below by referring to Examples, but the present invention is not limited to the embodiments below. The blood samples used in the Examples were collected from healthy humans unless otherwise described.
ROTEM (IL) was used to analyze blood coagulation.
Blood was collected using a blood collection tube (2 mL) containing 3.2% sodium citrate manufactured by Becton, Dickinson and Company. A rubber stopper is used for this blood collection tube. […]

Substance: heparan sulfate
- coagulation-promoting effect of the rubber stopper: can be inhibited
